Results published in patent US6395740B1, “Calcitonin mimetics” (ZymoGenetics, Inc., priority 1997, dated 2002).
Values after ≈ are worked out from the molar mass of the structure shown.

Columns and labels:
[1] = test system: PTH-induced bone resorption in mouse calvaria; experiment: Calvarial assay to determine calcitonin escape; format: cell-based
Protocol: Calvaria from 4-day old neonatal CD-1 mice (pregnant mice received from Charles River Laboratories) were trimmed with fine-tipped scissors to leave the parietal regions, including the sagittal suture. These trimmed bones were placed singly per well into 6-well culture cluster plates (Costar) with 1 mL/well of growth medium, Basel Medium (Eagle's with Earle's salts (GIBCO BRL, Gaithersburg, Md.)) containing 4.5 g/L glucose, 0.29 mg/mL L-glutamine, 1 mM sodium pyruvate, 15% heat-inactivated horse serum, antibiotics (penicillin-G 50 μg/mL, streptomycin 50 μg/mL, and neomycin 100 μg/mL) and containing 5 nM parathyroid hormone (PTH) 1-34 (Sigma), and rocked gently (RedRocker™) at 37° C. in a 5% CO2 humidified incubator for 17.5 hours preincubation. The concentration of PTH was chosen to insure maximum resorption. Calvaria designated as controls were pre-incubated in media without PTH.
Following preincubation, medium was removed and replaced with 1 mL/well of growth medium, as above, containing 20 or 30 μg/mL of the calcitonin mimetic 850-0231 in DMSO (final assay concentration of DMSO less than or equal to 1%), and compared with human calcitonin (hCT) tested at 0.5, 1.0, 5.0, […] All control wells contained a final assay concentration of DMSO equal to that present in the calcitonin mimetic treated wells.
Five bones were included in each sample group. Bones were incubated for a total of 98 hours. Time points were taken at 4, 8, 11, 24, 50.5, 72.5 and 98 hours. At each time point the media containing PTH was removed and fresh dilutions of compound in media were added to the calvaria. After the media was removed, total calcium measurements were made using a Nova 7/7+7 Electrolyte Analyzed (Nova Biomedical) according to the manufacturer's specifications. Induction of bone resorption by PTH is seen as an increase in the concentration of calcium in the growth medium due to degradation of the bone matrix.
A second calvaria bone resorption/escape assay was performed as described above with time points at 4, 8, 12, 16, 24, 49 and 73 hours. […] Histology was done on the PTH-treated and the 30 μg/mL calcitonin mimetic-treated calvaria.
A third calvaria bone resorption/escape assay was performed as described above with the following modifications. The calcitonin mimetic was tested at 5, 10 and 20 μg/mL. PTH was used at 10 nM to insure maximal resorption, hCT was tested at 2 nM and 8 nM and sCT was not included. Calvaria were pretreated with PTH for 19.75 hours. BrdU (bromodeoxyuridine, final concentration 10 μM) was added to the growth media for the final 17.5 hours, to identify proliferating cells. The lack of toxicity of 850-0231 will be verified by quartitating the number of proliferating BudU cells in histological sections of the calvaria. Time points were taken at 4, 8, 11, 24.5, 48 and 77 hours. A Novo CRT 10+ electrolyte analyzer (Nova Biomedical) was used to analyze the time point samples.
At the final time point, visual observations were made and photos taken to note the extent of resorption, and migration from the calvarial cells as a measure of toxicity. Again, human calcitonin lost its inhibitory effect between hours 11 and 24 (Table 5). The calvaria treated with the mimetic at 5 and 10 μg/mL also lost inhibitory effect between 11 and 24 hours.

[2] = test system: PTH-induced bone resorption in mouse calvariae; experiment: Calvarial assay: inhibition of PTH-induced bone resorption (calcium release); format: cell-based; settings: 1 nM PTH 1-34, 72 hours, read-out: Release of PTH Induced Ca++ IC50
Protocol: Calvaria from 4-day old neonatal CD-1 mice (pregnant mice received from Charles River Laboratories, Wilmington, Mass.) were trimmed with fine-tipped scissors to leave the parietal regions, including the sagittal suture. These trimmed bones were placed singly per well into 6-well cell culture cluster plates (Costar, Pleasanton, Calif.) with 1 mL/well of growth medium (DMEM, BioWhittaker, Walkersville, Md.) with 4.5 g/L glucose, 0.29 mg/mL L-glutamine, 1 mM sodium pyruvate, 15% heat-inactivated horse serum, and antibiotics (penicillin-G 50 μg/mL, streptomycin 50 μg/mL, and neomycin 100 μg/mL), and rocked gently (RedRocker™, model PR50-115V, Hoefer, San Francisco, Calif.) at 37° C. in a 5% CO2 humidified incubator for 24 hours preincubation.
Following preincubation, medium was removed and replaced with 1.5 mL/well of growth medium containing 1 nM parathyroid hormone (PTH) 1-34 (Sigma) to stimulate bone resorption. For evaluation of the ability of calcitonin mimetics to inhibit PTH induced bone resorption, mimetic compounds in DMSO were added to the growth medium at concentrations ranging from 1-400 μg/mL (final assay concentration of DMSO less than or equal to […]). In each exierimerec human calcitonin (0.02-20 nM, 0.2-2 nM preferred) was added to PTH treated bones as a positive control. […] All control wells contained a final assay concentration of DMSO equal to that present in calcitonin mimetic treated wells.
Five bones were included in each sample group. Bones were incubated for 72 hours following PTH addition to allow resorption of bone to occur. Observations were made of the general appearance, healthiness and number of cells that migrate from the calvaria during the incubation as a possible indication of possible toxicity. Calvaria to be examined histologically were transferred to glass scintillation vials containing 10 mL of 10% neutral buffered formalin. The medium was removed from the wells, and total calcium measurements were made using a Nova 7/7+7 Electrolyte Analyzer (Nova Biomedical, Waltham, Mass.) according to the manufacturer's specifications. Induction of bone resorption by PTH is seen as an increase in the concentration of calcium in the growth medium due to degradation of the bone matrix.

- IC50 [2]: 25 to 50 µg/mL (≈ 61.1 to 122 µM)
SMILES: COc1cc(CN2CCN(C(=O)Nc3cccc(C(F)(F)F)c3)CC2)ccc1O [Compound 850-0231]
- escape / continued inhibition of resorption ([1]; first assay, PTH 5 nM, 30 μg/mL): did not undergo this escape and continued to inhibit resorption throughout the 98th, hour
- Cumulative Total Calcium ([1]; first assay, PTH 5 nM, 850-0231 30 μg/mL, 4 hours): 0.16 mg %
- Cumulative Total Calcium ([1]; first assay, PTH 5 nM, 850-0231 30 μg/mL, 8 hours): 0.28 mg %
- Cumulative Total Calcium ([1]; first assay, PTH 5 nM, 850-0231 30 μg/mL, 11 hours): 0.36 mg %
- Cumulative Total Calcium ([1]; first assay, PTH 5 nM, 850-0231 30 μg/mL, 24 hours): 0.48 mg %
- Cumulative Total Calcium ([1]; first assay, PTH 5 nM, 850-0231 30 μg/mL, 50.5 hours): 0.32 mg %
- Cumulative Total Calcium ([1]; first assay, PTH 5 nM, 850-0231 30 μg/mL, 72.5 hours): 0.12 mg %
- Cumulative Total Calcium ([1]; first assay, PTH 5 nM, 850-0231 30 μg/mL, 98 hours): −0.18 mg %
- toxicity judged by number of cells migrated from calvaria ([1]; first assay, final time point): not toxic to the cells
- visual observation of the calvaria (resorption) ([1]; first assay, final time point (98 hours)): almost identical in appearance to the untreated calavaria
- histology of treated calvaria (integrity, toxicity) ([1]; second assay, 30 μg/mL): intact and showed minimal signs of toxicity
- continued inhibition of resorption ([1]; second assay, PTH 5 nM): able to continue inhibition of resorption throughout the 73rd hour
- Cumulative Total Calcium ([1]; second assay, PTH 5 nM, 850-0231 30 μg/mL, 4 hours): 0.40 mg %
- Cumulative Total Calcium ([1]; second assay, PTH 5 nM, 850-0231 30 μg/mL, 8 hours): 0.70 mg %
- Cumulative Total Calcium ([1]; second assay, PTH 5 nM, 850-0231 30 μg/mL, 12 hours): 0.88 mg %
- Cumulative Total Calcium ([1]; second assay, PTH 5 nM, 850-0231 30 μg/mL, 16 hours): 1.14 mg %
- Cumulative Total Calcium ([1]; second assay, PTH 5 nM, 850-0231 30 μg/mL, 24 hours): 1.04 mg %
- Cumulative Total Calcium ([1]; second assay, PTH 5 nM, 850-0231 30 μg/mL, 49 hours): 0.86 mg %
- Cumulative Total Calcium ([1]; second assay, PTH 5 nM, 850-0231 30 μg/mL, 73 hours): 0.56 mg %
- inhibition of resorption ([1]; third assay, PTH 10 nM, 20 μg/mL): significantly inhibited at all time points
- Cumulative Total Calcium ([1]; third assay, PTH 10 nM, 850-0231 5 μg/mL, 4 hours): 0.47 mg %
- Cumulative Total Calcium ([1]; third assay, PTH 10 nM, 850-0231 5 μg/mL, 8 hours): 1.08 mg %
- Cumulative Total Calcium ([1]; third assay, PTH 10 nM, 850-0231 5 μg/mL, 11 hours): 1.49 mg %
- Cumulative Total Calcium ([1]; third assay, PTH 10 nM, 850-0231 5 μg/mL, 24.5 hours): 3.73 mg %
- Cumulative Total Calcium ([1]; third assay, PTH 10 nM, 850-0231 5 μg/mL, 48 hours): 7.54 mg %
- Cumulative Total Calcium ([1]; third assay, PTH 10 nM, 850-0231 5 μg/mL, 77 hours): 11.83 mg %
- Cumulative Total Calcium ([1]; third assay, PTH 10 nM, 850-0231 10 μg/mL, 4 hours): 0.41 mg %
- Cumulative Total Calcium ([1]; third assay, PTH 10 nM, 850-0231 10 μg/mL, 8 hours): 0.87 mg %
- Cumulative Total Calcium ([1]; third assay, PTH 10 nM, 850-0231 10 μg/mL, 11 hours): 1.30 mg %
- Cumulative Total Calcium ([1]; third assay, PTH 10 nM, 850-0231 10 μg/mL, 24.5 hours): 3.05 mg %
- Cumulative Total Calcium ([1]; third assay, PTH 10 nM, 850-0231 10 μg/mL, 48 hours): 5.96 mg %
- Cumulative Total Calcium ([1]; third assay, PTH 10 nM, 850-0231 10 μg/mL, 77 hours): 8.87 mg %
- Cumulative Total Calcium ([1]; third assay, PTH 10 nM, 850-0231 20 μg/mL, 4 hours): 0.35 mg %
- Cumulative Total Calcium ([1]; third assay, PTH 10 nM, 850-0231 20 μg/mL, 8 hours): 0.70 mg %
- Cumulative Total Calcium ([1]; third assay, PTH 10 nM, 850-0231 20 μg/mL, 11 hours): 0.94 mg %
- Cumulative Total Calcium ([1]; third assay, PTH 10 nM, 850-0231 20 μg/mL, 24.5 hours): 2.23 mg %
- Cumulative Total Calcium ([1]; third assay, PTH 10 nM, 850-0231 20 μg/mL, 48 hours): 3.20 mg %
- Cumulative Total Calcium ([1]; third assay, PTH 10 nM, 850-0231 20 μg/mL, 77 hours): 3.78 mg %
